Results on five compounds are retold here after patent publication US20200199127A1, “(HETERO)ARYLALKYLAMINO-PYRAZOLOPYRIDAZINE DERIVATIVES HAVING MULTIMODAL ACTIVITY AGAINST PAIN” (priority 2017, published 2020).

The target in assay [1] is Human α2δ-1 subunit of Cav2.2 calcium channel (Homo sapiens, UniProt P54289). In words: Human α2δ-1 subunit of Cav2.2 calcium channel assay, [3H]-Gabapentin binding. The settings on record: human α2δ-1 enriched membranes, 15 nM [3H]-Gabapentin; Ki as class symbol. How it is done:
Human α2δ-1 Subunit of Cav2.2 Calcium Channel Assay
Human α2δ-1 enriched membranes (2.5 μg) were incubated with 15 nM of radiolabeled [3H]-Gabapentin in assay buffer containing Hepes-KOH 10 mM, pH 7.4. NSB (non specific binding) was measured by adding 10 μM pregabalin. The binding of the test compound was measured at five different concentrations. After 60 min incubation at 27° C., binding reaction was terminated by filtering through Multiscreen GF/C (Millipore) presoaked in 0.5% polyethyleneimine in Vacuum Manifold Station, followed by 3 washes with ice-cold filtration buffer containing 50 mM Tris-HCl, pH 7.4. Filter plates were dried at 60° C. for 1 hour and 30 μl of scintillation cocktail were added to each well before radioactivity reading. Readings were performed in a Trilux 1450 Microbeta radioactive counter (Perkin Elmer).

For assay [2], the target named is Human norepinephrine transporter (NET) (Homo sapiens, UniProt P23975). The assay can be described thus: Binding assay to human norepinephrine transporter (NET), [3H]-Nisoxetin. The settings on record: human NET enriched membranes, 5 nM [3H]-Nisoxetin; Ki as class symbol. How it is done:
Binding Assay to Human Norepinephrine Transporter (NET).
Human norepinephrine transporter (NET) enriched membranes (5 μg) were incubated with 5 nM of radiolabeled [3H]-Nisoxetin in assay buffer containing 50 mM Tris-HCl, 120 mM NaCl, 5 mM KCl, pH 7.4.
NSB (non specific binding) was measured by adding 10 μM of desipramine. The binding of the test compound was measured at five different concentrations.. After 60 min incubation at 4° C., binding reaction was terminated by filtering through Multiscreen GF/C (Millipore) presoaked in 0.5% polyethyleneimine in Vacuum Manifold Station, followed by 3 washes with ice-cold filtration buffer containing 50 mM Tris-HCl, 0.9% NaCl, pH 7.4.
Filter plates were dried at 60° C. for 1 hour and 30 μl of scintillation cocktail were added to each well before radioactivity reading.

Chain of Human norepinephrine transporter (NET) (P23975 whole entry): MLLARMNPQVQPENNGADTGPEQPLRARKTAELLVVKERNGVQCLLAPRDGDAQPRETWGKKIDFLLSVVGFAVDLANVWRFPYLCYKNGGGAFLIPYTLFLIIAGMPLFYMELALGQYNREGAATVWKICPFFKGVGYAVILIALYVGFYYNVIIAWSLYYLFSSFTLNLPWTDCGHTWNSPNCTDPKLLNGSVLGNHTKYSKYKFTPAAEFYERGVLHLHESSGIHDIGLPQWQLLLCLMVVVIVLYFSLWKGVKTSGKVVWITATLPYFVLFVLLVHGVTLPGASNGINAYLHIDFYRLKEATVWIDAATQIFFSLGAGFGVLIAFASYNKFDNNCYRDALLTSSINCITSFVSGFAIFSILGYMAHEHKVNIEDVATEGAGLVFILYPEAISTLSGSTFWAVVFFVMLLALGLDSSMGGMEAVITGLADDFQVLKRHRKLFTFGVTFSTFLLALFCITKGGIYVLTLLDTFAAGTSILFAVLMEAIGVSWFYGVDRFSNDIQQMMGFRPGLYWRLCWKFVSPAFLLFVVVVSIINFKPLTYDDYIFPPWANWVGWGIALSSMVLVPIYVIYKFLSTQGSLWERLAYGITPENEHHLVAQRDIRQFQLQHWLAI
Chain of Human α2δ-1 subunit of Cav2.2 calcium channel (P54289 25-1103): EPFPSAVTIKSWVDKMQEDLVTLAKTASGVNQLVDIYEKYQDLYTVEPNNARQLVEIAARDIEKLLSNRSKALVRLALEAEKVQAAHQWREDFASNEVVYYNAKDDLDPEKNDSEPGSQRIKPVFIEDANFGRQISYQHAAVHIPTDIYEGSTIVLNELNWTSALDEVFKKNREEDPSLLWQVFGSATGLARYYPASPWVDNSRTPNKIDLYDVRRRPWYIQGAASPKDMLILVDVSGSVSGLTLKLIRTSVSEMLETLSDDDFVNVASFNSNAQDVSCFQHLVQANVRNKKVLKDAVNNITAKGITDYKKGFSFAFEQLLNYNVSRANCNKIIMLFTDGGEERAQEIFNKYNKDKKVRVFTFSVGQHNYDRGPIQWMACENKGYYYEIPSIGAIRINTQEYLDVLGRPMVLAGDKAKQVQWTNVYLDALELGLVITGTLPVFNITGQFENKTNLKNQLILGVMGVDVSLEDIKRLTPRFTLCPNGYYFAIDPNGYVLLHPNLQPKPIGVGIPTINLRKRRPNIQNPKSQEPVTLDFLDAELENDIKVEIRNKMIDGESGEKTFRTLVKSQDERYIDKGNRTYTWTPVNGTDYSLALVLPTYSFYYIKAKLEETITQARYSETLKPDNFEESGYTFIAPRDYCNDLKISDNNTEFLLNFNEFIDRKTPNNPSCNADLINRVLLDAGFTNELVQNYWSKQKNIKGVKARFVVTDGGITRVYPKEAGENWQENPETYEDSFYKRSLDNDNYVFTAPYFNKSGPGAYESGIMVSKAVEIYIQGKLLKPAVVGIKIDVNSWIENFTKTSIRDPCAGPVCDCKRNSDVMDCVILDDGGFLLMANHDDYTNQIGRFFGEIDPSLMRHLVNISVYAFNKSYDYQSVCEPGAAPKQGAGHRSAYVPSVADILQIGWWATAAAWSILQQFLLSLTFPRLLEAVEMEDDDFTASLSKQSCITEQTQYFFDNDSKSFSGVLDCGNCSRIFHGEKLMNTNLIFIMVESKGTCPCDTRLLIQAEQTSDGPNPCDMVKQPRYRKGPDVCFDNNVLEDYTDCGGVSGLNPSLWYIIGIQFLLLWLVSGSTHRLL

For `CCOc1ccc(-n2nc3c(N(C)Cc4ccn[nH]4)nnc(C)c3c2C)c(F)c1` [Example 28, N-((1H-pyrazol-5-yl)methyl)-2-(4-ethoxy-2-fluorophenyl)-N,3,4-trimethyl-2H-pyrazolo[3,4-d]pyridazin-7-amine], the inhibition constant (Ki) is 100 to 500 nM in assay [1] and > 1000 nM in assay [2].

On to `CCOc1ccc(-n2nc3c(N(C)CC(O)c4ccccc4)nnc(C)c3c2C)c(F)c1` (stereo not shown) [Example 5, 2-((2-(4-ethoxy-2-fluorophenyl)-3,4-dimethyl-2H-pyrazolo[3,4-d]pyridazin-7-yl)(methyl)amino)-1-phenylethanol], for which the inhibition constant Ki is 100 to 500 nM in assay [1] and > 1000 nM in assay [2].

Consider `CCOc1ccc(-n2nc3c(N(C)Cc4ccncn4)nnc(C)c3c2C)c(F)c1` [Example 36, 2-(4-ethoxy-2-fluorophenyl)-N,3,4-trimethyl-N-(pyrimidin-4-ylmethyl)-2H-pyrazolo[3,4-d]pyridazin-7-amine], for which the Ki is 100 to 500 nM in assay [1] and > 1000 nM in assay [2].

As for `CCOc1ccc(-n2nc3c(N(C)Cc4ccccn4)nnc(C)c3c2C)c(F)c1` [Example 9, 2-(4-ethoxy-2-fluorophenyl)-N,3,4-trimethyl-N-(pyridin-2-ylmethyl)-2H-pyrazolo[3,4-d]pyridazin-7-amine], the Ki in assay [1] was 100 to 500 nM; in assay [2], 500 to 1000 nM.

`CCOc1ccc(-n2nc3c(NC(CCO)c4ccccc4)nnc(C)c3c2C)c(F)c1` (stereo not shown) [Example 8, 3-((2-(4-ethoxy-2-fluorophenyl)-3,4-dimethyl-2H-pyrazolo[3,4-d]pyridazin-7-yl)amino)-3-phenylpropan-1-ol]: the figures for the inhibitory constant (Ki) in assay [1] and in assay [2] were 100 to 500 nM and > 1000 nM, respectively.

In general, Ki refers to the dissociation constant of the complex between target and ligand, obtained from inhibition or displacement.
